Legend:
APP translation in SN = assay: 35S-Met labeling and immunoprecipitation of newly synthesized APP in synaptoneurosomes; type: cell-based, mouse; settings: WT SN
Procedure: WT and KO SNs (450 μl) were mixed with 25 μl Redivue Pro-Mix-L [^35S] for 5 min prior to stimulation with 25 μl 2 mM DHPG. Samples were flash frozen at the indicated times. To analyze new protein synthesis, SN lysates were cleared of free isotope, Percoll®, and sucrose by purification with the PAGEprep Advance kit according to the manufacturer's directions. Protein concentrations were determined by the BCA assay, and 15 μg protein was denatured and loaded per lane on 12% SDS gels for content analysis. Gels were dried and exposed to a phosphorimager screen to identify the results of these assays.
To specifically analyze APP synthesis, WT and KO SN lysates (500 μl) were immunoprecipitated with APP antibody. Briefly, SN lysates were precleared with protein A magnetic beads in 1 ml volumes containing 500 μl SNs, 500 μl 2×IP buffer (20 mM HEPES (pH 7.4), 400 mM NaCl, 60 mM EDTA (pH 8), and 2% Triton X-100), protease inhibitor cocktail, and 100 μl packed fresh protein A magnetic beads. For the immunoprecipitations, 10 μg anti-APP antibody (Zymed catalog number 51-2700) and fresh protein A magnetic beads were added and mixed overnight at 4° C. The beads were washed three times with IP buffer, and the final, washed pellets were suspended in 40 μl 2×SDS sample buffer and boiled for 5 min; the proteins were then separated on 12% SDS gels. The gels were transferred to a nitrocelluose membrane, dried, exposed to a phosphorimager screen, and scanned on a STORM 860 phosphorimager (Molecular Dynamics http://www6.amershambiosciences.com). APP bands at 120 kDa were quantitated with ImageQuant software (GE Healthcare Life Sciences, http://www4.amershambiosciences.com).
For mGluR5 inhibitor studies, SNs (425 μl) were preincubated with 25 μl anisomycin (40 μM final concentration) or MPEP (10 μM final concentration) for 10 min prior to the addition of 25 μl ^35S-Met for 5 min and stimulation with DHPG (100 μM final concentration) for 15 min. Samples were processed as described in the preceding paragraph.
To further assess FMRP regulation of APP levels in brain, cortical SN were prepared from WT mice and overall protein synthesis analyzed in response to DHPG (100 μM)-induced mGluR5 activation. SN were metabolically active as assessed by ^35S-Met incorporation. […]
These conclusions were tested by assessing the effects on APP translation of contacting SN with a group 1 mGluR5 antagonist, 2-methyl-6-(phenylethynyl)-pyridine (MPEP). […] To assess the effect of MPEP, a specific mGluR5 antagonist, on DHPG stimulation of de novo APP synthesis, SN were pre-treated with 10 μM MPEP for 10 min prior to the addition of ^35S-Met for 5 min and stimulation with 100 μM DHPG for 15 min. ^35S-Met-labeled APP was immunoprecipitated with anti-APP antibodies and analyzed by SDS-PAGE. […]

[1] = system: dendritic APP in primary neuronal cells; assay: Immunofluorescence confocal quantitation of dendritic APP in primary cortical neurons; type: cell-based, mouse
Procedure: Pregnant female mice at embryonic day 18 (E18) were anesthetized with halothane prior to decapitation and transfer of the uterine sac to ice-cold HBSS. […] Cells were counted by trypan blue dye exclusion and plated at 1.25×10^5 cells/ml on poly(D)-lysine-coated glass coverslips in 12-well tissue-culture dishes and cultured for 11 d at 37° C./5% CO2. Half of the culture medium was removed and replaced with fresh, warm medium on day 4. […] All washes and antibody dilutions were in PBS containing 2% FBS. […] Images were acquired with a Nikon C1 laser-scanning confocal microscope with EZ-C1 v2.20 software (Nikon, http://www.nikon.com) at 60× magnification. APP levels in the puncta of four to seven dendrites per sample were quantitated with IMAGE J software using the Analyze Particles function (minimum of 205 puncta analyzed per treatment) (Rasband, Image J, U.S. National Institutes of Health, http://rsb.info.nih.gov/ij; 1997-2006). Figures were assembled with Adobe Photoshop 8.0 (Adobe Systems, http://www.adobe.com). […] It was recognized that SN are a relatively crude preparation of pre- and post-synaptic dendrites that are contaminated with other cell types, such as astrocytes, which form synapses with neurons. Thus, primary E18 cortical neuron cultures were prepared from WT and Fmr-1 KO brains and dendritic APP levels assessed using an immunofluorescence assay. There was a 21% increase in the basal level of APP in untreated dendrites from Fmr-1 KO neurons compared to WT (FIG. 5B). […] Staining of dendritic puncta was analyzed by confocal microscopy and quantitated with Image J software using the Analyze Particles function (a minimum of 475 particles were analyzed per treatment) (Rasband, W. S., Image J, U.S. National Institutes of Health, http://rsb.info.nih.gov/ij; 1997-2006). Duplicate slides were stained for each treatment and the number and intensity of dendritic puncta from three areas of each slide were analyzed and averaged. All MPEP-treated samples were statistically different from untreated controls by t-test analyses (p<0.005) and expressed as standard error of the mean (SEM).

[2] = system: anxiety phenotype in Fmr-1 KO mice; settings: intraperitoneal injections; cited from earlier work
[3] = WT primary neuronal cells, 10 μM MPEP

SMILES	increase in APP translation (APP translation in SN; 100 μM DHPG, 15 min)	increase in APP translation over control (APP translation in SN; 100 μM DHPG, 1 hr)	increase in dendritic APP levels ([1]; Fmr-1 KO cultures, DHPG 10 and 20 min)	increase in dendritic APP levels ([1]; WT neurons, 100 μM DHPG, 10 and 20 min)	effect on DHPG-mediated synthesis of APP (APP translation in SN; 10 μM MPEP pre-treatment 10 min, 100 μM DHPG 15 min)	decrease in dendritic APP (average particle intensity) ([1]; WT C57BL/6 primary neuronal cells, 10 μM MPEP, 15 min)	decrease in area of each particle [1, 3]	increase in number of particles in a defined area [1, 3]	decrease in dendritic APP at later times ([1]; WT primary neuronal cells, 10 μM MPEP, 4 hr and 1 day)	effect on anxiety phenotype [2]
N[C@@H](C(=O)O)c1cc(O)cc(O)c1 (racemic) [DHPG, (R,S)-3,5-dihydroxyphenylglycine]	2.7 fold	1.6 fold	no increase	18-25%						
Cc1cccc(C#Cc2ccccc2)n1 [MPEP, 2-methyl-6-(phenylethynyl)pyridine]					blocked	37%	22%	29%	persisted	reduce

— patent US20130149721A1, “Methods for Inhibiting Amyloid Precursor Protein and Beta-Amyloid Production and Accumulation” (WISCONSIN ALUMNI RESEARCH FOUNDATION, priority 2008, published 2013)
